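Compound exposure: 48 hours, 5 concentrations, 96-well plates. GI50 = concentration required for 50% inhibition of growth.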 Calls of active or inactive are those of the source. Cut-off read from the data, not from the text of the source: active = GI50 up to about 1.1 µM and inactive = higher.
Key:
Assay in all cases: NCI-60 cell line screen, 48 h
[1] = tested on: HT-29
[2] = tested on: SK-MEL-2
[3] = tested on: HL-60
[4] = tested on: NCI-H522
[5] = tested on: TK-10
[6] = tested on: SN12C
[7] = tested on: CAKI-1
[8] = tested on: NCI-H460
[9] = tested on: ACHN
[10] = tested on: SF-295
[11] = tested on: UACC-62
[12] = tested on: SF-268
[13] = tested on: MDA-MB-435
[14] = tested on: OVCAR-4
[15] = tested on: A498
[16] = tested on: NCI-H226
[17] = tested on: SK-MEL-28
[18] = tested on: MOLT-4
[19] = tested on: SR

Compound | GI50 [1] | GI50 [2] | GI50 [3] | GI50 [4] | GI50 [5] | GI50 [6] | GI50 [7] | GI50 [8] | GI50 [9] | GI50 [10] | GI50 [11] | GI50 [12] | GI50 [13] | GI50 [14] | GI50 [15] | GI50 [16] | GI50 [17] | GI50 [18] | GI50 [19]
c1cncc(C(Nc2cccc3cccnc23)Nc2cccc3cccnc23)c1 | > 100 µM (inactive) | > 100 µM (inactive) | 36.3 µM (inactive) | 28.8 µM (inactive) | > 100 µM (inactive) | > 100 µM (inactive) | 53 µM (inactive) | > 100 µM (inactive) | > 100 µM (inactive) | > 100 µM (inactive) | > 100 µM (inactive) | 50.5 µM (inactive) | > 100 µM (inactive) | – | – | – | – | – | –
Cc1ccc(S(=O)(=O)c2c(O)c3ccccc3n(C)c2=O)cc1 | > 100 µM (inactive) | > 100 µM (inactive) | > 100 µM (inactive) | – | – | > 100 µM (inactive) | > 100 µM (inactive) | > 100 µM (inactive) | – | > 100 µM (inactive) | > 100 µM (inactive) | > 100 µM (inactive) | > 100 µM (inactive) | > 100 µM (inactive) | > 100 µM (inactive) | > 100 µM (inactive) | > 100 µM (inactive) | – | –
CNC(=O)c1ccccc1-[s+]1c2ccccc2c(=O)n1C (centres undefined) | > 100 µM (inactive) | > 100 µM (inactive) | > 100 µM (inactive) | > 100 µM (inactive) | > 100 µM (inactive) | > 100 µM (inactive) | > 100 µM (inactive) | – | > 100 µM (inactive) | > 100 µM (inactive) | > 100 µM (inactive) | > 100 µM (inactive) | > 100 µM (inactive) | > 100 µM (inactive) | > 100 µM (inactive) | > 100 µM (inactive) | > 100 µM (inactive) | > 100 µM (inactive) | –
CN(C(=O)c1cc2c(s1)sc1c(=O)n(C)c3ccccc3c12)c1ccccc1 | 2.77 µM (inactive) | 3.77 µM (inactive) | – | 4.41 µM (inactive) | 24.7 µM (inactive) | 34.8 µM (inactive) | 7.41 µM (inactive) | 2.43 µM (inactive) | 5.46 µM (inactive) | 2.25 µM (inactive) | 6.03 µM (inactive) | – | 0.828 µM (active) | 42.7 µM (inactive) | – | 5.48 µM (inactive) | > 100 µM (inactive) | 3.63 µM (inactive) | 1.93 µM (inactive)
CC1=C(C#N)S(=O)(=O)c2c(oc(C)c2C)N1 | > 100 µM (inactive) | > 100 µM (inactive) | – | > 100 µM (inactive) | > 100 µM (inactive) | > 100 µM (inactive) | > 100 µM (inactive) | > 100 µM (inactive) | > 100 µM (inactive) | > 100 µM (inactive) | > 100 µM (inactive) | > 100 µM (inactive) | > 100 µM (inactive) | > 100 µM (inactive) | > 100 µM (inactive) | > 100 µM (inactive) | > 100 µM (inactive) | > 100 µM (inactive) | –
CCOC(=O)c1cc(=O)c2ccnc3c2n1CCS3 | > 100 µM (inactive) | > 100 µM (inactive) | > 100 µM (inactive) | 22.7 µM (inactive) | > 100 µM (inactive) | > 100 µM (inactive) | > 100 µM (inactive) | > 100 µM (inactive) | > 100 µM (inactive) | > 100 µM (inactive) | > 100 µM (inactive) | > 100 µM (inactive) | > 100 µM (inactive) | – | > 100 µM (inactive) | > 100 µM (inactive) | > 100 µM (inactive) | > 100 µM (inactive) | –
O=C(O)C1CCCCC1C(=O)Nn1cnnc1 (centres undefined) | > 100 µM (inactive) | > 100 µM (inactive) | – | > 100 µM (inactive) | > 100 µM (inactive) | > 100 µM (inactive) | – | – | > 100 µM (inactive) | > 100 µM (inactive) | > 100 µM (inactive) | > 100 µM (inactive) | > 100 µM (inactive) | > 100 µM (inactive) | – | – | > 100 µM (inactive) | > 100 µM (inactive) | > 100 µM (inactive)
CN(C)CCCn1c(Cn2nc3ccccc3n2)nc2cc(C(F)(F)F)ccc21 | 19.7 µM (inactive) | 19.4 µM (inactive) | 1.69 µM (inactive) | 14.6 µM (inactive) | 24 µM (inactive) | 47.8 µM (inactive) | 32.6 µM (inactive) | 26.4 µM (inactive) | 41.5 µM (inactive) | 44.1 µM (inactive) | 19.2 µM (inactive) | 42 µM (inactive) | 16.5 µM (inactive) | 33.4 µM (inactive) | 17.2 µM (inactive) | 56 µM (inactive) | 17.4 µM (inactive) | 19.1 µM (inactive) | –
Nn1c(S)nnc1NNC(=O)C(=O)Nc1cc(Cl)c(Cl)cc1Cl | > 100 µM (inactive) | – | – | > 100 µM (inactive) | > 100 µM (inactive) | > 100 µM (inactive) | > 100 µM (inactive) | > 100 µM (inactive) | > 100 µM (inactive) | > 100 µM (inactive) | > 100 µM (inactive) | > 100 µM (inactive) | – | > 100 µM (inactive) | > 100 µM (inactive) | > 100 µM (inactive) | > 100 µM (inactive) | – | –
COP(C)(=O)C(Cc1c[nH]c2ccccc12)NC(=O)OCc1ccccc1 (centres undefined) | > 100 µM (inactive) | > 100 µM (inactive) | > 100 µM (inactive) | – | > 100 µM (inactive) | > 100 µM (inactive) | > 100 µM (inactive) | > 100 µM (inactive) | > 100 µM (inactive) | > 100 µM (inactive) | > 100 µM (inactive) | > 100 µM (inactive) | > 100 µM (inactive) | > 100 µM (inactive) | > 100 µM (inactive) | > 100 µM (inactive) | > 100 µM (inactive) | > 100 µM (inactive) | –
Oc1ccc[n+](Cc2ccccc2)c1 | > 100 µM (inactive) | > 100 µM (inactive) | > 100 µM (inactive) | > 100 µM (inactive) | > 100 µM (inactive) | > 100 µM (inactive) | > 100 µM (inactive) | > 100 µM (inactive) | > 100 µM (inactive) | > 100 µM (inactive) | > 100 µM (inactive) | > 100 µM (inactive) | > 100 µM (inactive) | – | > 100 µM (inactive) | > 100 µM (inactive) | > 100 µM (inactive) | > 100 µM (inactive) | –
CCN(CC)C(=O)COc1cc2c(O)c3c(O)c(C)c4c(c13)C(=O)C(C)(OC=CC(OC)C(C)C(OC(C)=O)C(C)C(O)C(C)C(O)C(C)C=CC=C(C)C(=O)N2)O4 (centres undefined) | > 100 µM (inactive) | > 100 µM (inactive) | – | – | > 100 µM (inactive) | > 100 µM (inactive) | > 100 µM (inactive) | > 100 µM (inactive) | > 100 µM (inactive) | > 100 µM (inactive) | > 100 µM (inactive) | > 100 µM (inactive) | – | > 100 µM (inactive) | > 100 µM (inactive) | > 100 µM (inactive) | > 100 µM (inactive) | > 100 µM (inactive) | > 100 µM (inactive)
Cc1ccc2c(=O)c(-c3nnc(N)s3)c[nH]c2n1 | > 100 µM (inactive) | > 100 µM (inactive) | > 100 µM (inactive) | > 100 µM (inactive) | > 100 µM (inactive) | > 100 µM (inactive) | > 100 µM (inactive) | > 100 µM (inactive) | > 100 µM (inactive) | > 100 µM (inactive) | > 100 µM (inactive) | 36.3 µM (inactive) | > 100 µM (inactive) | > 100 µM (inactive) | > 100 µM (inactive) | 71.4 µM (inactive) | > 100 µM (inactive) | > 100 µM (inactive) | –
CCCCCCCCCCOc1ccc(/N=N/c2nnc(-c3ccc(OCCCCC)cc3)s2)cc1 | > 100 µM (inactive) | – | – | > 100 µM (inactive) | > 100 µM (inactive) | > 100 µM (inactive) | > 100 µM (inactive) | > 100 µM (inactive) | 93.5 µM (inactive) | 62.5 µM (inactive) | 48 µM (inactive) | > 100 µM (inactive) | 34.5 µM (inactive) | > 100 µM (inactive) | 49.4 µM (inactive) | – | > 100 µM (inactive) | > 100 µM (inactive) | –
O=c1[nH]c(=O)n(C2CC(O)C(CO)O2)cc1OCCCc1ccccc1 (centres undefined) | > 100 µM (inactive) | – | > 100 µM (inactive) | > 100 µM (inactive) | > 100 µM (inactive) | > 100 µM (inactive) | > 100 µM (inactive) | > 100 µM (inactive) | > 100 µM (inactive) | > 100 µM (inactive) | > 100 µM (inactive) | > 100 µM (inactive) | > 100 µM (inactive) | > 100 µM (inactive) | – | > 100 µM (inactive) | > 100 µM (inactive) | > 100 µM (inactive) | –
O=C(Cc1ccccc1)N/N=C(/c1nc2ccc([N+](=O)[O-])cc2nc1O)C(O)c1ccco1 (centres undefined) | > 100 µM (inactive) | > 100 µM (inactive) | 31.8 µM (inactive) | 12.6 µM (inactive) | > 100 µM (inactive) | > 100 µM (inactive) | 60.8 µM (inactive) | > 100 µM (inactive) | 57.4 µM (inactive) | > 100 µM (inactive) | > 100 µM (inactive) | > 100 µM (inactive) | – | > 100 µM (inactive) | > 100 µM (inactive) | > 100 µM (inactive) | > 100 µM (inactive) | > 100 µM (inactive) | > 100 µM (inactive)
CC(=O)Oc1c(C)cc2c(c1C)C(C)CN2C(C)=O (centres undefined) | > 100 µM (inactive) | > 100 µM (inactive) | > 100 µM (inactive) | > 100 µM (inactive) | > 100 µM (inactive) | > 100 µM (inactive) | – | > 100 µM (inactive) | > 100 µM (inactive) | > 100 µM (inactive) | > 100 µM (inactive) | > 100 µM (inactive) | > 100 µM (inactive) | > 100 µM (inactive) | > 100 µM (inactive) | > 100 µM (inactive) | > 100 µM (inactive) | > 100 µM (inactive) | –
